Residues, ends and D or L forms follow the SMILES beside them.
How the values were obtained:
piglets [1] = assay: Three point bending test (Instron 4302) of bones from piglets given AKG or Ala-Gln orally; format: in vivo, pig; details: for Bone ultimate strength (Wf) femur: piglets 35 days of postnatal life, 0.4 g/kg b.w. oral once a day
Protocol: (§1) All piglets suckled sow milk before weaning. After weaning at the age of 28 days piglets were fed ad libitum with a standard mixture Premix prestarter (PP) (Food plant-Motycz, Poland) and free access to water was allowed. Piglets were allotted to three experimental trials:
(§2) 2—Second group, receiving 0.4 g/kg/b.w. of L-alanyl-L-glutamine (ala-gln), (2 ml solution/kg b.w.)
(§3) Different parameters are used for defining and measuring the bone quality according to the invention. Used parameters are known to the skilled man in the art and are explained below: • 1) Maximum elastic strength measures the load, in Newtons (N), at […]. • 2) Ultimate strength measures the load, in Newtons (N), at […] of the bone. • 3) Cross-sectional area is the measure of the bone area on the cross section, in mm^2. • 4) Second moment of inertia is the measurement of the efficiency of the cross-sectional geometry to resist bending force, expressed in mm^4. • 5) Mean relative wall thickness is the wall thickness of the bone to its lumen. • 6) Bone mineral density (BMD) expresses the mineral content of the bone expressed in g/cm^2.
(§4) At the age of 35 days, piglets were sacrificed, eviscerated and bones were sampled.
Using Instron 4302 apparatus and applying three point bending test as presented in FIG. 1, the following properties of the bones were determined from curves showing the relation between load and deflection:
1) maximum elastic strength, Wy
4) maximum elastic deflection.

piglets [2] = assay: Architectural and geometric properties of bones from piglets given AKG or Ala-Gln orally; format: in vivo, pig; details: piglets 35 days, 0.4 g/kg b.w. oral, mean ± SEM
Protocol: as §1, §2, §3, §4
Architectural and geometric properties of bone were estimated based on measurements of horizontal and vertical cross section as well as interior and exterior diameter of the bone.
Mean relative wall thickness (MRWT) expresses the ratio of wall to lumen measures and serves as an indicator in the process of architectural adaptation of bone to physiological stress during the growth of the body. When the lumen increases with unchanged wall thickness the MRWT decreases but bone resistance to strain increases.

piglets [3] = assay: Growth (bodyweight) and bone mineralisation during postnatal life of the pig; format: in vivo
Protocol: as §1, §2, §4

postmenopausal women = details: Gynecol. Endocrinol. 7:201-205 (1993); cited from earlier work
turkeys = assay: Ulna bone mineral density (DEXA) after fracture and neurectomy in the turkey; format: in vivo; details: group A, 0.8 g/kg oral
Text: Turkeys are kept in common cages, 10 turkeys/cage. The turkeys have free access to water and are fed ad libitum.

ovariectomized rats = assay: Femur bone mineral density in intact, shame operated and ovariectomized osteopenic female rats given AKG in drinking water; format: in vivo, Wistar rats; details: all three groups (INT, SHO, OVX), 60 days drinking water with AKG, p<0.01 in all groups
Protocol: 60 female Wistar rats at the age of 2 months and with an initial bodyweight of 200 g are used.
The animals are maintained in controlled conditions of 12/12 h dark/light ratio at 22° C.±2 and at 55%±2 humidity with free access to food and water.
The rats are divided into three groups (n=20), where Group 1 is shame operated, Group 2 is ovariectomized and Group 3 is intact, i.e. not operated at all.
On the day of surgery, all rats are anaesthetised with an intramuscular injection of ketamine and xylaline.
20 of the rats are shame-operated (SHO), where the ovaries are exteriorised and replaced intact.
The second group of ovariectomized rats (OVX) are submitted to ovariectomy from a dorsal approach.
Six months after ovariectomy, the animals from group 1 and 2, are divided into two additional sub-groups; one placebo and one experimental group.
After 60 days with placebo and experimental drinking water the rats are anaesthetised in CO2 and femur isolated for further analysis of bone mineral density.

[4] = ribs 4-9, piglets 35 days, 0.4 g/kg b.w. oral, mean ± SEM

Row | Molecule | Bone ultimate strength (Wf) femur (piglets [1]; mean ± SEM) [N] | Bone maximum elastic strength (Wy) (ribs 4-9) (piglets [1]; [4]) [N] | Moment of ultimate strength ribs (4-9) (piglets [1]; [4]) | Ultimate strength (Wf) (ribs 4-9) (piglets [1]; [4]) [N] | Cross-sectional area (A) femur (piglets [2]; femur) | Second moment of inertia (Ix) femur (piglets [2]; femur) | Cross-sectional area (A) humerus (piglets [2]) | Cross sectional area (A) (ribs 4-9) (piglets [2]; ribs 4-9) [mm^2] | Second moment of inertia (ribs 4-9) (piglets [2]; ribs 4-9) [mm^4] | Bodyweight difference, day 14 (piglets [3]; day 14, control group always less than Ala-Gln group) | Bodyweight difference, day 21 (piglets [3]; day 21, control group always less than Ala-Gln group) | Bodyweight difference, day 35 (piglets [3]; day 35, control group always less than Ala-Gln group) | Bodyweight difference, day three (piglets [3]; day three of postnatal life, control group always less than Ala-Gln group) | Increase in bone mineral density (postmenopausal women) [%] | Yielding stress of the 5th rib (piglets [1]; 5th rib, 35-days-old piglets, versus control) | BMD of the ulna bone, difference compared to the saline treated turkeys (turkeys; left wing control (intact), p<0.01) [%] | BMD of the ulna bone, AKG effect compared to the saline treated turkeys (turkeys; right wing experimental (neurectomized, fracture of the ulnae), p<0.055) | BMD difference between the AKG treated rats and the placebo treated rats (ovariectomized rats)
1 | C[C@H](N)C(=O)N[C@@H](CCC(N)=O)C(=O)O [Ala-Gln, L-alanyl-L-glutamine] (H-Ala-Gln-OH) | 1075.0 ± 28.16 | 442.9 ± 15.32 | 625.24 ± 1.5 ∇ N | 450.2 ± 22.1 | 60.1 ± 2.59 * mm^2 | 492.8 ± 12.81 ∇ mm^4 | 52.2 ± 2.48 * mm^2 | 9.62 ± 0.33 | 10.88 ± 0.55 | about 690 g | about 419 g | about 313 g | about 96 g | – | – | – | – | –
2 | L-glutamine calcium monofluorophospate | – | – | – | – | – | – | – | – | – | – | – | – | – | 4.25 | – | – | – | –
3 | α-keto-glutaric sodium salt [AKG] | 1123.0 ± 75.09 | – | – | – | 64.7 ± 3.82 * mm^2 | – | 52.7 ± 4.1 * mm^2 | – | – | – | – | – | – | – | significant increase | 25 | about 11% | about 10%

Reference: patent US9233088B2, “Use of glutamate, glutamate derivatives or metabolites, glutamate analogues or mixtures thereof for the manufacture of a composition for the treatment of osteoporosis” (Protista Biotechnology AB, priority 2001, dated 2016)
